According to patent publication US6537986B2, “Oxazolidinone antibacterial agents having a thiocarbonyl funtionality” (Pharmacia & Upjohn Company, priority 1997, dated 2003):
≈ marks a conversion by molar mass, not a printed value. Where two headings read alike, the source gives them in different places.

Columns and labels:
[1] = system: E. Faecium (EFAE 12712); test: MIC, standard agar dilution method; assay type: cell-based; conditions: for MIC: Enterococcus faecium, read-out: EFAE 12712 MIC
Description: (§1) MIC Test Method The in vitro MICs of test compounds were determined by a standard agar dilution method. […] Serial 2-fold dilutions of each sample are made using 1.0 ml aliquots of sterile distilled water. To each 1.0 ml aliquot of drug is added 9 ml of molten Mueller Hinton agar medium. The drug-supplemented agar is mixed, poured into 15×100 mm petri dishes, and allowed to solidify and dry prior to inoculation. Vials of each of the test organisms are maintained frozen in the vapor phase of a liquid nitrogen freezer. Test cultures are grown overnight at 35° C. on the medium appropriate for the organism. Colonies are harvested with a sterile swab, and cell suspensions are prepared in Trypticase Soy broth (TSB) to equal the turbidity of a 0.5 McFarland standard. A 1:20 dilution of each suspension is made in TSB. […] The plates are incubated overnight at 35° C. Following incubation the Minimum Inhibitory Concentration (MIC μg/ml), the lowest concentration of drug that inhibits visible growth of the organism, is read and recorded.

[2] = system: Enterococcus faecalis (EFAE 9217); test: MIC, standard agar dilution method; assay type: cell-based; conditions: Table II, key: Enterococcus faecalis, Mueller Hinton agar, incubated overnight at 35° C.; for MIC: read-out: EFAE 9217 MIC
Description: as §1

[3] = system: Haemophilus influenzae (HINF 30063); test: MIC, standard agar dilution method; assay type: cell-based; conditions: Table II, Mueller Hinton agar, incubated overnight at 35° C.; for MIC: Haemophilus influenzae
Description: as §1

[4] = system: Moraxella catarrhalis (MCAT 30610); test: MIC, standard agar dilution method; assay type: cell-based; conditions: Table II, Mueller Hinton agar, incubated overnight at 35° C.; for MIC: Moraxella catarrhalis
Description: as §1

[5] = system: S. aureus (SAUR 9213); test: MIC, standard agar dilution method; assay type: cell-based; conditions: Table II, Mueller Hinton agar, incubated overnight at 35° C.; for MIC: Staphylococcus aureus, read-out: SAUR 9213 MIC
Description: as §1

[6] = system: S. epidermidis (SEPI 30593); test: MIC, standard agar dilution method; assay type: cell-based; conditions: Table II, Mueller Hinton agar, incubated overnight at 35° C.; for MIC: Staphylococcus epidermidis
Description: as §1

[7] = system: S. pneumoniae (SPNE 9912); test: MIC, standard agar dilution method; assay type: cell-based; conditions: Table II, Mueller Hinton agar, incubated overnight at 35° C.; for MIC: Streptococcus pneumoniae, read-out: SPNE 9912 MIC
Description: as §1

[8] = system: S. pyogenes (SPYO 152); test: MIC, standard agar dilution method; assay type: cell-based; conditions: Table II, Mueller Hinton agar, incubated overnight at 35° C.; for MIC: Streptococcus pyogenes, read-out: SPYO 152 MIC
Description: as §1

[9] = Table II, key: E. Faecium, agar dilution, Mueller Hinton agar, incubated overnight at 35° C.

Row | Compound | EFAE 12712 MIC [1, 9] [µg/mL] | EFAE 9217 MIC [2] [µg/mL] | HINF 30063 MIC [3] [µg/mL] | MCAT 30610 MIC [4] [µg/mL] | SAUR 9213 MIC [5] [µg/mL] | SEPI 30593 MIC [6] [µg/mL] | SPNE 9912 MIC [7] [µg/mL] | SPYO 152 MIC [8] [µg/mL] | melting point [°C] | MIC [1, 9] [µg/mL] | MIC [2] [µg/mL] | MIC [3] [µg/mL] | MIC [4] [µg/mL] | MIC [5] [µg/mL] | MIC [6] [µg/mL] | MIC [7] [µg/mL] | MIC [8] [µg/mL] | MIC [1] [µg/mL]
1 | CSC(=S)NC[C@H]1CN(c2ccc(N3CCOCC3)c(F)c2)C(=O)O1 [Example 34] | 2 | 2 | >16 | 4 | 2 | 1 | 0.5 | 1 | – | – | – | – | – | – | – | – | – | –
2 | COC(=S)NC[C@H]1CN(c2ccc(N3CC[S+]([O-])CC3)c(F)c2)C(=O)O1 [Example 100, (S)-N-[[3-[3-Fluoro-4-(4-thiomorpholinyl)phenyl]-2-oxo-5-oxazolidinyl]methyl]-O-methylthiocarbamate, thiomorpholine S-oxide] | – | – | – | – | – | – | – | – | 208 to 209 | – | – | – | – | – | – | – | – | –
3 | CC(=S)NC[C@H]1CN(c2ccc(N3CCSCC3)c(F)c2)C(=O)O1 [Example 26, (S)-N-[[3-[3-Fluoro-4-(4-thiomorpholinyl)phenyl]-2-oxo-5-oxazolidinyl]methyl]thio-acetamide] | – | – | – | – | – | – | – | – | 155 to 156 | 1 (≈ 2.71 µM) | 1 (≈ 2.71 µM) | 16 (≈ 43.3 µM) | 2 (≈ 5.41 µM) | 1 (≈ 2.71 µM) | 0.5 (≈ 1.35 µM) | 0.25 (≈ 0.677 µM) | 0.5 (≈ 1.35 µM) | –
4 | CC(=S)NC[C@H]1CN(c2ccc(-n3cncn3)c(F)c2)C(=O)O1 [Example 22] | – | – | – | – | – | – | – | – | – | 1 (≈ 2.98 µM) | 1 (≈ 2.98 µM) | 4 (≈ 11.9 µM) | 2 (≈ 5.96 µM) | 0.5 (≈ 1.49 µM) | 0.5 (≈ 1.49 µM) | < 0.125 | 0.25 (≈ 0.745 µM) | –
5 | NC(=S)NC[C@H]1CN(c2ccc(C3CC[S+]([O-])CC3)c(F)c2)C(=O)O1 (stereo partly drawn) [Example 10, (S)-trans-[[3-[3-Fluoro-4-(tetrahydro-1-oxido-2H-thiopyran4-yl)phenyl]-2-oxo-5-oxazolidinyl]methyl]thiourea] | – | – | – | – | – | – | – | – | – | 0.5 (≈ 1.3 µM) | 1 (≈ 2.59 µM) | 2 (≈ 5.19 µM) | 1 (≈ 2.59 µM) | 2 (≈ 5.19 µM) | 1 (≈ 2.59 µM) | < 0.125 | 0.25 (≈ 0.649 µM) | –
6 | CC(=S)NC[C@H]1CN(c2ccc(N3CCS(=O)(=O)CC3)c(F)c2)C(=O)O1 [Example 28, (S)-N-[[3-[3-Fluoro-4-(4-thiomorpholinyl)phenyl]-2-oxo-5-oxazolidinyl]methyl]thio-acetamide, thiomorpholine S, S-dioxide] | 0.5 | 0.5 | 2 | 1 | 0.5 | 0.25 | 0.25 | 0.25 | – | – | – | – | – | – | – | – | – | –
7 | CC(=S)NC[C@H]1CN(c2ccc(N3CCCSCC3)cc2)C(=O)O1 [Example 534, (5S)-N-[[3-[4-(Tetrahydro-1,4-thiazepin-4(5H)-yl)phenyl]-2-oxo-5-oxazolidinyl]methyl]thioacetamide] | – | – | – | – | – | – | – | – | 129 to 131 | – | – | – | – | – | – | – | – | –
8 | CC(=S)NC[C@H]1CN(c2ccc([C@H]3CC[S@@+]([O-])CC3)c(F)c2)C(=O)O1 [Example 7, (S)-cis-N-[[3-[3-Fluoro-4-(tetrahydro-1-oxido-2H-thiopyran-4-yl)phenyl]-2-oxo-5-oxazolidinyl]methyl]ethanethioamide] | – | – | – | – | – | – | – | – | – | – | 0.5 (≈ 1.3 µM) | 4 (≈ 10.4 µM) | 1 (≈ 2.6 µM) | 0.5 (≈ 1.3 µM) | 0.25 (≈ 0.65 µM) | < 0.125 | 0.25 (≈ 0.65 µM) | 0.5 (≈ 1.3 µM)
9 | NC(=S)NC[C@H]1CN(c2ccc([C@H]3CC[S@@+]([O-])CC3)c(F)c2)C(=O)O1 [Example 8, (S)-cis-[[3-[3-Fluoro-4-(tetrahydro-1-oxido-2H-thiopyran-4-yl)phenyl]-2-oxo-5-oxazolidinyl]methyl]thiourea] | – | – | – | – | – | – | – | – | – | 0.5 (≈ 1.3 µM) | 1 (≈ 2.59 µM) | 4 (≈ 10.4 µM) | 2 (≈ 5.19 µM) | 2 (≈ 5.19 µM) | 1 (≈ 2.59 µM) | < 0.125 | 0.25 (≈ 0.649 µM) | –
10 | N#CCC(=S)NC[C@H]1CN(c2ccc(N3CCOCC3)c(F)c2)C(=O)O1 [Example 19, (S)-N-[[3-[3-Fluoro-4-(4-morpholinyl)phenyl]-2-oxo-5-10 oxazolidinyl]methyl]-α-eyanothioacetamnide] | 32 | 32 | 64 | 32 | 32 | 16 | 16 | 16 | – | – | – | – | – | – | – | – | – | –
11 | CC(=S)NC[C@H]1CN(c2ccc([C@H]3CC[S@+]([O-])CC3)c(F)c2)C(=O)O1 [Example 9, (S)-trans-N-[[3-[3-Fluoro-4-(tetrahydro-1-oxido-2H-thiopyran-4-yl)phenyl]-2-oxo-5-oxazolidinyl]methyl]ethanethioamide] | – | – | – | – | – | – | – | – | – | 0.25 (≈ 0.65 µM) | 0.25 (≈ 0.65 µM) | 2 (≈ 5.2 µM) | 0.5 (≈ 1.3 µM) | 0.5 (≈ 1.3 µM) | 0.25 (≈ 0.65 µM) | < 0.125 | < 0.125 | –
12 | O=C1O[C@@H](CNC(=S)CCl)CN1c1ccc(N2CCOCC2)c(F)c1 [Example 15, (S)-N-[[3-[3-Fluoro-4-(4-morpholinyl)phenyl]-2-oxo-5-oxrazolidinyl]methyl]-2-chlorotlioacetamide] | – | – | – | – | – | – | – | – | – | 32 (≈ 82.5 µM) | 32 (≈ 82.5 µM) | > 64 | 64 (≈ 165 µM) | 32 (≈ 82.5 µM) | 16 (≈ 41.3 µM) | 4 (≈ 10.3 µM) | 8 (≈ 20.6 µM) | –
13 | NC(=S)NC[C@H]1CN(c2ccc(C3CCS(=O)(=O)CC3)c(F)c2)C(=O)O1 [Example 12, (S)-N-[[3-[3-Fluoro-4-(tetrahydro-1,1-dioxido-2H-thiopyran-4-yl)phenyl]-2-oxo-5-oxazolidinyl]methyl]thiourea] | – | – | – | – | – | – | – | – | – | 0.25 (≈ 0.623 µM) | 0.5 (≈ 1.25 µM) | 1 (≈ 2.49 µM) | 0.5 (≈ 1.25 µM) | 1 (≈ 2.49 µM) | 0.5 (≈ 1.25 µM) | < 0.125 | < 0.125 | –
14 | COC(=S)NC[C@H]1CN(c2ccc(N3CCOCC3)c(F)c2)C(=O)O1 [Example 35] | 1 | 1 | 16 | 2 | 1 | 0.5 | 0.25 | 0.5 | – | – | – | – | – | – | – | – | – | –
15 | CC(=S)NC[C@H]1CN(c2ccc(C3CCS(=O)(=O)CC3)c(F)c2)C(=O)O1 [Example 11, (S)-N-[[3-[3-Fluoro-4-(tetrahydro-1,1-dioxido-2H-thiopyran-4-yl)phenyl]-2-oxo-5-oxazolidinyl]methyl]ethanethioamide] | – | – | – | – | – | – | – | – | – | 0.25 (≈ 0.624 µM) | 0.25 (≈ 0.624 µM) | 2 (≈ 4.99 µM) | 1 (≈ 2.5 µM) | 0.25 (≈ 0.624 µM) | 0.25 (≈ 0.624 µM) | < 0.125 | 0.25 (≈ 0.624 µM) | –
